# Experimental data published in patent US7507540B1, “Catalytic anti-factor VIII allo-antibodies” (Institut National de la Sante et de la Recherche Medicale …, priority 1999, dated 2009).
# Non-standard residues stand in square brackets, D forms with d. Residues, ends and D or L forms follow the SMILES beside them. *: point of attachment. Sta = CC(C)C[C@H](N)[C@@H](O)CC(=O)O; Isovaleryl = CC(C)CC(=O)*
# Test system: proteolytic activity of anti-Factor VIII IgG
# Assay: Inhibition of anti-Factor VIII IgG-catalysed hydrolysis of [125I]-Factor VIII
# Format: biochemical, human
# Settings: for inhibition of proteolytic activity of anti-Factor VIII IgG: IgG of patients Bor and Wal
# Method: Commercial human recombinant Factor VIII was labelled with ^125I to a specific activity of 11.6 nCi/μg, by using the iodogen method. [^125I]-Factor VIII (1.5 to 150 ng) was incubated in 50 μl of 50 mM tris-HCI pH 7.7, 100 mM glycine, 0.025% Tween-20 and 0.02% NaN3 alone or with 17 to 1667 nM of immuno-purified anti-Factor VIII IgG for 5 min to 10 hours at 38° C. Human monoclonal anti-digoxin IgG M061 (mAb) and normal unfractionated human polyclonal IgG (IVIg, Sandoglobulin®), were used as negative controls. Samples were mixed 1:1 with Laemmli's buffer without mercaptoethanol, and were subjected to SDS electrophoresis without boiling,. Samples were run in parallel on 7.5% and 15% SDS-PAGE under non-reducing conditions, after loading 20 μl of each sample per lane. Migration was performed at room temperature using a mini-PROTEAN II system at 25 mA/gel, until the dye front reached the bottom of the gel. […] Following autoradiography, the Factor VIII bands of apparent molecular weight 200 and 300 kDa that are consistently hydrolysed by anti-Factor VIII IgG, were scanned so as to allow for the calculation of the rate of hydrolysis of labelled Factor VIII.
# Hydrolysis of [^125I]-Factor VIII by affinity-purified anti-Factor VIII IgG antibodies of haemophilia A patients with inhibitor in the presence of Pefabloc®. [^125I]-Factor VIII (150 ng) was incubated alone, with 50 μg/ml of immunopurified anti-Factor VIII IgG of patient Wal or in the presence of both anti-Factor VIII IgG and 4 mM of the serine protease inhibitor Pefabloc® (Boehringer) for 5 h at 38° C. Factor VIII was then analysed by 7.5% SDS-PAGE under non-reducing conditions. Following autoradiography, the Factor VIII bands of apparent molecular weight 200 and 300 kDa that are consistently hydrolysed by anti-FVIII IgG, were scanned so as to allow for the calculation of the % of hydrolysis of labelled […].
compound,measurement,setting,value
"Cl.NCCc1ccc(S(=O)(=O)F)cc1 [Pefabloc, 4-(2-aminoethyl)benzenesulphonyl fluoride hydrochloride]",inhibition of proteolysis of radio-labelled Factor VIII by anti-Factor VIII allo-antibodies of patient Wal,"4 mM Pefabloc, 50 μg/ml IgG of patient Wal, 5 h at 38° C.",about 62%
CC(C)CC(=O)N[C@H](C(=O)N[C@H](C(=O)N[C@@H](CC(C)C)[C@@H](O)CC(=O)N[C@@H](C)C(=O)N[C@@H](CC(C)C)[C@@H](O)CC(=O)O)C(C)C)C(C)C [pepstatin] (Isovaleryl-VV[Sta]A[Sta]-OH),inhibition of proteolytic activity of anti-Factor VIII IgG,pepstatin 10 μM,did not result in inhibition of proteolytic activity
CC(=O)N[C@@H](CC(C)C)C(=O)N[C@@H](CC(C)C)C(=O)N[C@H](C=O)CCCNC(=N)N [leupeptin],inhibition of proteolytic activity of anti-Factor VIII IgG,leupeptin 10 μM,did not result in inhibition of proteolytic activity
O=C(O)CN(CCN(CC(=O)O)CC(=O)O)CC(=O)O [EDTA],inhibition of proteolytic activity of anti-Factor VIII IgG,EDTA 1.3 μM,did not result in inhibition of proteolytic activity
aprotinin,inhibition of proteolytic activity of anti-Factor VIII IgG,aprotinin 0.15 μM,did not result in inhibition of proteolytic activity
CC(C)C[C@H](NC(=O)[C@H]1O[C@@H]1C(=O)O)C(=O)NCCCCN=C(N)N [E-64],inhibition of proteolytic activity of anti-Factor VIII IgG,E-64 28 μM,did not result in inhibition of proteolytic activity
vWF: purified von Willebrand Factor,partial inhibition of hydrolysis of Factor VIII by anti-Factor VIII IgG,30 μg/ml of vWF versus 300 ng/ml of Factor VIII,36.9%
